Test results: US8637525B2, “Compounds for the reduction of beta-amyloid production” (Bristol-Myers Squibb Company, priority 2009, dated 2014)

system: Aβ1-42 production; test: Cellular assay for inhibition of Aβ1-42 production (H4 APP751 SWE clone 8.20); format: cell-based; details: 19 h, H4 APP751 SWE clone 8.20 cells, 19 h incubation; class symbols; read-out: Activity Rating (Aβ42 cellular IC50)
Procedure, shortened: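 Compound-treated cells were incubated 19 h at 37 °C in 5% CO2. Aβ42 in the cell plate was detected overnight at 4 °C with an Aβ42 neoepitope antibody (565, Wallac-labelled, 0.8 ng/well) plus N-terminal antibody 26D6 (APC, 75 ng/well) in 40 mM Tris-HCl pH 7.4, 0.2% BSA. IC50s came from curve fitting.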

SMILES | IC50 [nM]
CNc1nc(Nc2ccc(-n3ncnc3C)c(OC)c2)nc2c1CC[C@@H]2c1ccc(F)cc1 [Example 264B, (R)-7-(4-fluorophenyl)-N2-(3-methoxy-4-(5-methyl-1H-1,2,4-triazol-1-yl)phenyl)-N4-methyl-6,7-dihydro-5H-cyclopenta[d]pyrimidine-2,4-diamine] | 10 to 100
CNc1nc(Nc2ccc(-n3cnc(C)c3)c(OC)n2)nc2c1CCC2c1ccc(F)cc1 (stereo not shown) [Example 267, 7-(4-fluorophenyl)-N2-(6-methoxy-5-(4-methyl-1H-imidazol-1-yl)pyridin-2-yl)-N4-methyl-6,7-dihydro-5H-cyclopenta[d]pyrimidine-2,4-diamine] | 10 to 100
CNc1nc(Nc2ccc(-n3cnc(C)n3)c(OC)c2)nc2c1CCC2c1ccc(N(C)C)cc1 (stereo not shown) [Example 273, 7-(4-(dimethylamino)phenyl)-N2-(3-methoxy-4-(3-methyl-1H-1,2,4-triazol-1-yl)phenyl)-N4-methyl-6,7-dihydro-5H-cyclopenta[d]pyrimidine-2,4-diamine] | 10 to 100
CNc1nc(Nc2ccc(-n3cnc(C)n3)c(OC)c2)nc2c1CCC2c1ccc(C(F)(F)F)nc1 (stereo not shown) [Example 276, N2-(3-methoxy-4-(3-methyl-1H-1,2,4-triazol-1-yl)phenyl)-N4-methyl-7-(6-(trifluoromethyl)pyridin-3-yl)-6,7-dihydro-5H-cyclopenta[d]pyrimidine-2,4-diamine] | 10 to 100
CNc1nc(Nc2ccc(-c3cc(Cl)ncn3)c(OC)c2)nc2c1CCC2c1ccccc1 (stereo not shown) [Example 277, N2-(4-(6-chloropyrimidin-4-yl)-3-methoxyphenyl)-N4-methyl-7-phenyl-6,7-dihydro-5H-cyclopenta[d]pyrimidine-2,4-diamine] | > 1000
CNc1nc(Nc2ccc(-c3ccnc(Cl)c3)c(OC)c2)nc2c1CCC2c1ccccc1 (stereo not shown) [Example 278, N2-(4-(2-chloropyridin-4-yl)-3-methoxyphenyl)-N4-methyl-7-phenyl-6,7-dihydro-5H-cyclopenta[d]pyrimidine-2,4-diamine] | 10 to 100

Other lines, results leading:

IC50 [nM] | SMILES
10 to 100 | CNc1nc(Nc2ccc(-n3cnc(C)n3)c(OC)c2)nc2c1CC[C@@H]2c1ccccc1OC [Example 266B, (R)—N2-(3-methoxy-4-(3-methyl-1H-1,2,4-triazol-1-yl)phenyl)-7-(2-methoxyphenyl)-N4-methyl-6,7-dihydro-5H-cyclopenta[d]pyrimidine-2,4-diamine]
10 to 100 | CNc1nc(Nc2ccc(-n3cnc(C)n3)c(OC)c2)nc2c1CC[C@@H]2c1ccccc1Cl [Example 268B, (R)—N2-(3-methoxy-4-(3-methyl-1H-1,2,4-triazol-1-yl)phenyl)-7-(2-chlorophenyl)-N4-methyl-6,7-dihydro-5H-cyclopenta[d]pyrimidine-2,4-diamine]
10 to 100 | CNc1nc(Nc2ccc(-n3cnc(C)n3)c(OC)c2)nc2c1CC[C@@H]2c1cccc(OC)c1 [Example 272B, (R)—N2-(3-methoxy-4-(3-methyl-1H-1,2,4-triazol-1-yl)phenyl)-7-(3-methoxyphenyl)-N4-methyl-6,7-dihydro-5H-cyclopenta[d]pyrimidine-2,4-diamine]

same assay, conditions: 19 h, H4 APP751 SWE clone 8.20 cells, 19 h incubation; read-out: Activity Rating (Aβ42 cellular IC50), numeric value

IC50 [nM] | SMILES
32 | CNc1nc(Nc2ccc(-c3cccnc3)c(OC)c2)nc2c1CCC2c1ccccc1 (stereo not shown) [Example 263, N2-(3-methoxy-4-(pyridin-3-yl)phenyl)-N4-methyl-7-phenyl-6,7-dihydro-5H-cyclopenta[d]pyrimidine-2,4-diamine]
